In one test the target is Carbonic anhydrase 9 (Homo sapiens, UniProt Q16790).
In the next test the target is Carbonic anhydrase 12 (Homo sapiens, UniProt O43570). In words: Inhibition of human CA12 by stopped-flow assay.
The next test deals with Carbonic anhydrase 1 (Homo sapiens, UniProt P00915). In words: Inhibition of human CA1 by stopped-flow assay.
For a further test, the target named is Carbonic anhydrase 2 (Homo sapiens, UniProt P00918). In words: Inhibition of human CA2 by stopped-flow assay.

Each structure is given as a SMILES string.

Chain of Carbonic anhydrase 1 (P00915 whole entry): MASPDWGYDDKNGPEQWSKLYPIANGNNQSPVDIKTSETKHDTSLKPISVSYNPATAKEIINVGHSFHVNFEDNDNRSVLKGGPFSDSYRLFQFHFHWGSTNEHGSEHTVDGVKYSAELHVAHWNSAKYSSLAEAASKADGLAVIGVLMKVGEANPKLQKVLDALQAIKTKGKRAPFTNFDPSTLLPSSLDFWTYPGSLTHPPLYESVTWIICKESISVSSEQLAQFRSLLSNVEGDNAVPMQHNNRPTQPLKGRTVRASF
Chain of Carbonic anhydrase 12 (O43570 whole entry): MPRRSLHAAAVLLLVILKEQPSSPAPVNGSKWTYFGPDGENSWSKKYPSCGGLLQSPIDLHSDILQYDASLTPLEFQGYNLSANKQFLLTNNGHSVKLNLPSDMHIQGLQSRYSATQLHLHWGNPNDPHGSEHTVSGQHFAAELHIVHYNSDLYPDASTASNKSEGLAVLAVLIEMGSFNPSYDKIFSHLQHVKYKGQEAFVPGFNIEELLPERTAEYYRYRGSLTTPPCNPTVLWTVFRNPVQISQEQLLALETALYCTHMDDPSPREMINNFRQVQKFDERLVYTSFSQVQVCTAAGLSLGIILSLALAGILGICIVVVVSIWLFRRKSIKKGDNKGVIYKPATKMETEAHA
Description for Carbonic anhydrase 9: Inhibition of human CA9 by stopped-flow assay

In the case of `N=C(N)Nc1ccc(C(=O)O)cc1` [4-GUANIDINO-BENZOIC ACID], the Ki on Carbonic anhydrase 9 worked out at 2560 nM; at Carbonic anhydrase 12 it was 480 nM; at Carbonic anhydrase 1, 630 nM; on Carbonic anhydrase 2, 1150 nM.
`N=C(N)Nc1ccc(O)cc1`: the inhibitory constant (Ki) on Carbonic anhydrase 9 was found to be 4130 nM; at Carbonic anhydrase 12 it was 14600 nM; at Carbonic anhydrase 1, 8340 nM; at Carbonic anhydrase 2, 7510 nM.
In the case of `N=C(N)NCCc1ccc(S(N)(=O)=O)cc1`, the Ki at Carbonic anhydrase 9 came out at 34 nM; on Carbonic anhydrase 12, 14 nM; on Carbonic anhydrase 1 it was 240 nM; at Carbonic anhydrase 2 it was 89 nM.

The values are drawn from ChEMBL document CHEMBL2321754, “Novel small molecule protein arginine deiminase 4 (PAD4) inhibitors” (Bioorg Med Chem Lett, 2013).
